The values that follow come from patent US8288424B2, “Substituted tetrahydroimidazopyridine compounds and the use thereof in the treatment of pain and other conditions” (Gruenenthal GmbH, priority 2008, dated 2012).

pEC50: −log10 of the molar value.

One assay addresses T1, KCNQ2/3 channels (Homo sapiens, UniProt O43525+O43526).
T1 construct: expressed in transfected cells; host or cells: CHO-K1
In words: Fluorescence assay using a voltage-sensitive dye. The format is cell-based. Conditions: 10 μmol test substance; CHO-K1 cells expressing KCNQ2/3 channels; agonistic activity; read-out: % Stimulation [10 μmol] Average. On the procedure: Fluorescence Assay Using a Voltage-Sensitive Dye
Human CHO-K1 cells expressing KCNQ2/3 channels are cultivated adherently at 37° C., 5% CO2 and 95% humidity in cell culture bottles (e.g. 80 cm^2 TC flasks, Nunc) with MEM Alpha Medium (1×, liquid, Invitrogen, #22571), 10% foetal calf serum (FCS) (Invitrogen, #10270-106, heat-inactivated) and the necessary selection antibiotics. Before being spread out for the measurements, the cells are washed with a 1×DPBS buffer without Ca^2+/Mg^2+ (e.g. Invitrogen, #14190-094) and detached from the bottom of the culture vessel by means of Accutase (PAA Laboratories, #L11-007) (incubation with Accutase for 15 min at 37° C.). The cell count then present is determined using a CASY™ cell counter (TCC model, Schärfe System) in order subsequently to apply 20,000 cells/well/100 μl of the described nutrient medium to 96-well measuring plates of the Corning™ CellBIND™ type (flat clear-bottom black polystyrene microplates, #3340). Incubation is then carried out for one hour at room temperature, without gassing or adjusting the humidity, followed by incubation for 24 hours at 37° C., 5% CO2 and 95% humidity.
The voltage-sensitive fluorescent dye from the Membrane Potential Assay Kit (Red bulk format part R8123 for FLIPR, Molecular Devices™) is prepared by dissolving the contents of a vessel of Membrane Potential Assay Kit Red Component A in 200 ml of extracellular buffer (ES buffer, 120 mM NaCl, 1 mM KCl, 10 mM HEPES, 2 mM CaCl2, 2 mM MgCl2, 10 mM glucose; pH 7.4). After removal of the nutrient medium, the cells are washed with 200 μl of ES buffer, then covered with a layer of 100 μl of the dye solution prepared above and incubated for 45 min at room temperature with exclusion of light.
The fluorescence measurements are carried out with a BMG Labtech FLUOstar™ or BMG Labtech POLARstar™ instrument (525 nm excitation, 560 nm emission, bottom-read mode). After incubation of the dye, 50 μl of the substances to be tested in the desired concentrations, or 50 μl of ES buffer for control purposes, are introduced into separate cavities of the measuring plate and incubated for 30 min at room temperature whilst being shielded from light. The fluorescence intensity of the dye is then measured for 5 min and the fluorescence value F1 of each well is thus determined at a given, constant time. 15 μl of a […] KCl solution ([…]) are then added to each well. The change in fluorescence is subsequently measured until all relevant measured values have been obtained (mainly 5-30 min). At a given time after KCl application, a fluorescence value F2 is determined, in this case at the time of the fluorescence peak.
For calculation, the fluorescence intensity F2 is compared with the fluorescence intensity F1, and the agonistic activity of the target compound on the potassium channel is determined therefrom. F2 and F1 are calculated as follows:
[formula] In order to determine whether a substance has an agonistic activity,
[formula] for example, can be compared with
[formula] of control cells.
[formula] is determined by adding to the reaction batch only the buffer solution instead of the substance to be tested, determining the value F1K of the fluorescence intensity, adding the potassium ions as described above and measuring a value F2K of the fluorescence intensity. Then F2K and F1K are calculated as follows:
[formula] A substance has an agonistic activity on the potassium channel when
[formula] is greater than
[formula] Independently of the comparison of
[formula] it is also possible to conclude that a target compound has an agonistic activity if an increase in
[formula] is to be observed as the dosage of the target compound increases. Calculations of EC50 and IC50 values are carried out with the aid of Prism 4 software (GraphPad Software™).
For `COc1c(C)cc(C2CCc3nc(C(=O)NCc4ccc(F)cc4)cn3C2)cc1C` (centres unmarked) [Compound 49, N-(4-Fluorobenzyl)-6-(4-methoxy-3,5-dimethylphenyl)-5,6,7,8-tetrahydroimidazo-[1,2-a]pyridine-2-carboxamide], the activation at 10 µM is 15.1%.
`COc1ccc(C2CCc3nc(C(=O)NCc4cccc(C(F)(F)F)c4)cn3C2)cc1` (centres unmarked) [Compound 39, 6-(4-Methoxyphenyl)-N-(3-(trifluoromethyl)benzyl)-5,6,7,8-tetrahydroimidazo[1,2-a]pyridine-2-carboxamide]: the activation at 10 µM turned out to be 17.8%.
The same measure, in the same setting: as for `Cc1ccc(C2CCc3nc(C(=O)N4CCN(c5cccc(C(F)(F)F)c5)CC4)cn3C2)cc1` (centres unmarked) [Compound 74, (6-p-Tolyl-5,6,7,8-tetrahydroimidazo[1,2-a]pyridin-2-yl)(4-(3-(trifluoromethyl)phenyl)piperazin-1-yl)methanone], the figure is 51.9%; as for `Cc1cc(C2CCc3nc(C(=O)NCCC4CCCCC4)cn3C2)ccc1F` (centres unmarked) [Compound 88, N-(2-Cyclohexylethyl)-6-(4-fluoro-3-methylphenyl)-5,6,7,8-tetrahydroimidazo[1,2-a]pyridine-2-carboxamide], 47.9%; as for `CC1(C)CC2CC(C)(CN2C(=O)c2cn3c(n2)CCC(c2cccc(F)c2)C3)C1` (centres unmarked) [Compound 4, (6-(3-Fluorophenyl)-5,6,7,8-tetrahydroimidazo[1,2-a]pyridin-2-yl)(1,3,3-trimethyl-6-azabicyclo[3.2.1]octan-6-yl)methanone], 20.7%.
Still for that read-out and setting: the result for `O=C(c1cn2c(n1)CCC(c1cc(F)ccc1F)C2)N1CCCC1` (centres unmarked) [Compound 36, (6-(2,5-Difluorophenyl)-5,6,7,8-tetrahydroimidazo[1,2-a]pyridin-2-yl)(pyrrolidin-1-yl)methanone] reads 21.7%.
Same read-out and setting: the result for `O=C(c1cn2c(n1)CCC(c1ccc(OCc3ccccc3)cc1)C2)N1CCN(c2cccc(C(F)(F)F)c2)CC1` (centres unmarked) [Compound 82, (6-(4-(Benzyloxy)phenyl)-5,6,7,8-tetrahydroimidazo[1,2-a]pyridin-2-yl)(4-(3-(trifluoromethyl)phenyl)piperazin-1-yl)methanone] reads 32.7%; that for `O=C(c1cn2c(n1)CCC(c1cccc(C(F)(F)F)c1)C2)N1CCN(c2ccccc2F)CC1` (centres unmarked) [Compound 32, (4-(2-Fluorophenyl)piperazin-1-yl)(6-(3-(trifluoromethyl)phenyl)-5,6,7,8-tetrahydroimidazo[1,2-a]pyridin-2-yl)methanone], 21.2%; that for `Cc1cc(C2CCc3nc(C(=O)N4CCC(c5cccc(C(F)(F)F)c5)CC4)cn3C2)ccc1F` (centres unmarked) [Compound 85, (6-(4-Fluoro-3-methylphenyl)-5,6,7,8-tetrahydroimidazo[1,2-a]pyridin-2-yl)(4-(3-(trifluoromethyl)phenyl)piperidin-1-yl)methanone], 120%.
As for `Cc1cc(C2CCc3nc(C(=O)N4CCN(c5ccc(C(F)(F)F)cc5)CC4)cn3C2)ccc1F` (centres unmarked) [Compound 62, (6-(4-Fluoro-3-methylphenyl)-5,6,7,8-tetrahydroimidazo[1,2-a]pyridin-2-yl)(4-(4-(trifluoromethyl)phenyl)piperazin-1-yl)methanone], the activation at 10 µM was found to be 40.8%.
As to `CC1(C)CC2CC(C)(CN2C(=O)c2cn3c(n2)CCC(c2ccc(F)cc2)C3)C1` (centres unmarked) [Compound 38, (6-(4-Fluorophenyl)-5,6,7,8-tetrahydroimidazo[1,2-a]pyridin-2-yl)(1,3,3-trimethyl-6-azabicyclo[3.2.1]octan-6-yl)methanone], the activation at 10 µM was determined as 25.9%.
On the same count and under the same terms, the result for `Cc1cc(C2CCc3nc(C(=O)N4CC5(C)CC4CC(C)(C)C5)cn3C2)ccc1F` (centres unmarked) [Compound 84, (6-(4-Fluoro-3-methylphenyl)-5,6,7,8-tetrahydroimidazo[1,2-a]pyridin-2-yl)(1,3,3-trimethyl-6-azabicyclo[3.2.1]octan-6-yl)methanone] reads 37.9%.
On the same count and under the same terms, the result for `O=C(c1cn2c(n1)CCC(c1cccc(F)c1)C2)N1CCC(Cc2ccccc2)CC1` (centres unmarked) [Compound 61, (4-Benzylpiperidin-1-yl)(6-(3-fluorophenyl)-5,6,7,8-tetrahydroimidazo[1,2-a]pyridin-2-yl)methanone] reads 82.2%; that for `CCOC(=O)C1CCCN(C(=O)c2cn3c(n2)CCC(c2ccc(Oc4ccccc4)cc2)C3)C1` (centres unmarked) [Compound 22, Ethyl 1-(6-(4-phenoxyphenyl)-5,6,7,8-tetrahydroimidazo[1,2-a]pyridine-2-carbonyl)piperidine-3-carboxylate], 18%; that for `COc1ccc(N2CCN(C(=O)c3cn4c(n3)CCC(c3cc(C)c(OC)c(C)c3)C4)CC2)cc1` (centres unmarked) [Compound 44, (6-(4-Methoxy-3,5-dimethylphenyl)-5,6,7,8-tetrahydroimidazo[1,2-a]pyridin-2-yl)(4-(4-methoxyphenyl)piperazin-1-yl)methanone], 27.5%.
The same measure, in the same setting: as for `Cc1cc(C2CCc3nc(C(=O)NCC4CCCCC4)cn3C2)ccc1F` (centres unmarked) [Compound 68, N-(Cyclohexylmethyl)-6-(4-fluoro-3-methylphenyl)-5,6,7,8-tetrahydroimidazo[1,2-a]pyridine-2-carboxamide], the figure is 25.1%.

The assay is the same for the next values; noted with them: CHO-K1 cells expressing KCNQ2/3 channels; agonistic activity.
Broadly, the pEC50 is −log10 of the EC50, conventionally taken in molar units. Higher therefore signals a low EC50. `Cc1cc(C)cc(C2CCc3nc(C(=O)N4CCN(c5cccc(C(F)(F)F)c5)CC4)cn3C2)c1` (centres unmarked) [Compound 77, (6-(3,5-Dimethylphenyl)-5,6,7,8-tetrahydroimidazo[1,2-a]pyridin-2-yl)(4-(3-(trifluoromethyl)phenyl)piperazin-1-yl)methanone]: the pEC50 was 7.10.
Same read-out and setting: the result for `CCOC(=O)C1CCN(C(=O)c2cn3c(n2)CCC(c2ccc(Oc4ccccc4)cc2)C3)CC1` (centres unmarked) [Compound 20, Ethyl 1-(6-(4-phenoxyphenyl)-5,6,7,8-tetrahydroimidazo[1,2-a]pyridine-2-carbonyl)piperidine-4-carboxylate] reads 4.94.
`COc1ccc(F)cc1C1CCc2nc(C(=O)N3CC4(C)CC3CC(C)(C)C4)cn2C1` (centres unmarked) [Compound 9, (6-(5-Fluoro-2-methoxyphenyl)-5,6,7,8-tetrahydroimidazo[1,2-a]pyridin-2-yl)(1,3,3-trimethyl-6-azabicyclo[3.2.1]octan-6-yl)methanone] showed a negative logarithm of the EC50 (pEC50) of 4.92.
Still for that read-out and setting: as for `CCCCCCNC(=O)c1cn2c(n1)CCC(c1cc(C)c(OC)c(C)c1)C2` (centres unmarked) [Compound 16, N-Hexyl-6-(4-methoxy-3,5-dimethylphenyl)-5,6,7,8-tetrahydroimidazo[1,2-a]pyridine-2-carboxamide], the figure is 5.40; as for `Cc1cc(C2CCc3nc(C(=O)N4CCN(c5cccc(F)c5)CC4)cn3C2)ccc1F` (centres unmarked) [Compound 83, (6-(4-Fluoro-3-methylphenyl)-5,6,7,8-tetrahydroimidazo[1,2-a]pyridin-2-yl)(4-(3-fluorophenyl)piperazin-1-yl)methanone], 5.19; as for `COc1c(C)cc(C2CCc3nc(C(=O)N4CC5(C)CC4CC(C)(C)C5)cn3C2)cc1C` (centres unmarked) [Compound 56, (6-(4-Methoxy-3,5-dimethylphenyl)-5,6,7,8-tetrahydroimidazo[1,2-a]pyridin-2-yl)(1,3,3-trimethyl-6-azabicyclo[3.2.1]octan-6-yl)methanone], 4.95.
`CC(=O)N1CCN(C(=O)c2cn3c(n2)CCC(c2ccc(Oc4ccccc4)cc2)C3)CC1` (centres unmarked) [Compound 23, 1-(4-(6-(4-Phenoxyphenyl)-5,6,7,8-tetrahydroimidazo[1,2-a]pyridine-2-carbonyl)piperazin-1-yl)ethanone]: the pEC50 was 5.24.
